Data on five substances can be found in patent publication US20110217260A1, “METHOD OF ENHANCING EYELASH AND EYE BROW HAIR GROWTH” (priority 2010, published 2011).

Read-outs that look alike come from different tables or passages of the source.

Data set [1] has as its system cultured human hair follicles. As to conditions: cited from earlier work; for Effect on hair follicle growth in the absence of insulin: IGF-I and IGF-II 0.01-100 ng/ml; for Effect on hair follicle growth in the presence of insulin: 10 micrograms/ml insulin present; for Preventing hair follicles from entering a catagen-like state, compared with insulin / Rate of hair follicle growth compared with 10 micrograms/ml insulin: IGF-I 10 ng/ml, IGF-II 100 ng/ml.

On data set [2], the source says: Discontinue the treatment till it disappears and restart the program. Latisse needs a prescription from a doctor in order to purchase Latisse like you would get any other medication. […] If one develops hypoglycemic symptoms due to any number of reasons, drink a sugar drink, eat a candy, or fruit cocktail.
A further data set deals with eyelash hair follicles. Kind of data set: Eyelash hair growth / hair follicle transplant after topical application. The data set is classed as in vivo. To be noted: insulin alone, no second hypertrichosis agent. An excerpt:
Step 4: Apply selected hair growth therapeutic agent if need be such as minoxidil or prostaglandin derived hair growth promoters which are already approved for hair growth of the eyelashes. […] Apply the clean dressing on the wound if need be.
Step 4: Apply selected hair growth therapeutic agent using PGF 2α, and analogues. Using these hair growing prostaglandins after pretreatment of the eye lids site with insulin results in much more rapid hair growth compared to when applied without insulin.

Another data set has as its system indolent ulcers. Description: Local insulin on indolent ulcers, wound healing. The data set is classed as in vivo. To be noted: insulin spray on indolent ulcers, unpublished data. From the text: We have used insulin for more than a decade to enhance the effectiveness of locally injected therapeutic agents specially cancers with chemotherapeutic agents with remarkable results. Our unpublished data also supports that the insulin spray on indolent ulcers anywhere in the body, including the oral (gums) and nasal cavity. […] Application of insulin soaked cotton swabs (1-3 units in normal saline) after teeth extraction induces rapid healing with reduced pain.

The subject of data set [3] is MCF-7 human breast cancer cells. As to conditions: MCF-7 cells; cited from earlier work.
The conditions of data set [4]: in vivo; cited from earlier work.

Regarding “Growth hormone: growth hormone (somatotropin)”, the “Effect on hair follicle growth in the absence of insulin” value (from here on “Effect … in the absence of insulin”) in data set [1] is “no effect on hair follicle growth or morphology”.
On to “IGF-I: insulin-like growth factor 1, a growth hormone believed to work with androgens to initiate and maintain hair growth”, for which, in data set [1], the “Effect on hair follicle growth in the presence of insulin” value is “no significant effect on hair follicle growth”; the “Preventing hair follicles from entering a catagen-like state, compared with insulin” value is reported as “more potent than insulin”; the “Rate of hair follicle growth compared with 10 micrograms/ml insulin” value was “identical”; the “Effect … in the absence of insulin” value is “stimulated hair follicle growth in a dose-dependent manner”. The “Concentration giving maximum rates of hair follicle growth” value (shortened to “Concentration giving maximum rates”) in data set [1] (in the absence of insulin) is 10 ng/mL.
Turning to IGF-II: Insulin-like growth factor II, in data set [1], the “Effect on hair follicle growth in the presence of insulin” value is recorded as “no significant effect on hair follicle growth”; the “Preventing hair follicles from entering a catagen-like state, compared with insulin” value is reported as “more potent than insulin”; the “Rate of hair follicle growth compared with 10 micrograms/ml insulin” value is reported as “unable to stimulate hair follicle growth to the same extent as insulin”; the “Effect … in the absence of insulin” value was “stimulated hair follicle growth in a dose-dependent manner”. Also, the “Concentration giving maximum rates” value in data set [1] (in the absence of insulin) was 100 ng/mL.
As for “Insulin: hormone secreted by beta cells in the islets of Langerhans in the pancreas”, the Hypoglycemia result in data set [2] (after application of insulin to the eye lids) is “none of our cases developed hypoglycemia”. For the same substance, in data set [2] (insulin alone), the “Darkening of the eye lids” value is “did not result in any appreciable darkening of the eye lids”. The “Wound healing, uptake and growth of hair follicle transplant” value in the data set on eyelash hair follicles is “enough to facilitate rapid wound healing along with uptake and growth of hair follicle transplant”. In addition, in the data set on indolent ulcers, the Wound healing result is listed as “accelerated wound healing”. Moreover, in data set [1] (follicles maintained in medium containing insulin), the “Concentration giving maximum rates” value was 10 micrograms/ml. The “Effect of insulin on hair follicle growth” value in data set [1] (range of 0.01 to 100 micrograms/ml) was “stimulated hair follicle growth in a dose-dependent manner”. For the same substance, the “Increase of the cytotoxic effect of methotrexate” value in data set [3] is listed as “up to 10,000 fold”.
With “Regular (R) humulin or novolin: Short-acting insulin”, in data set [4], the Duration of action was 5 to 8 h, the Onset of action is 30 to 60 min and the Peak effect is 2 to 5 h.
